We go through 22 compounds from patent US5239084A, “Substituted aminoalkyl biphenyl compounds” (Hoffmann-La Roche Inc., priority 1990, dated 1993).

One assay relates to C. albicans 3152. Briefly: agar dilution method, C. albicans 3152. Format: cell-based, Candida albicans. As to conditions: Candida albicans, 48 h, alone, 37° C., 2 days. (In agar dilution the substance is mixed into plates at graded concentrations.)
In a further assay the test system is C. albicans H12. Kind of assay: agar dilution method, C. albicans H12. The note with it: for MIC: Candida albicans, H12, 48 h. Format: cell-based, Candida albicans.
In another assay the test system is C. albicans H29. Kind of assay: agar dilution method, C. albicans H29. Format: cell-based, Candida albicans. The note with it: for MIC: Candida albicans, H29, 48 h, alone, 37° C., 2 days; for FIC: synergistic when FIC <0.5.
For the next assay, the system named is C. albicans B4. Kind of assay: agar dilution method, C. albicans B4. Format: cell-based, Candida albicans. As to conditions: for MIC: Candida albicans, B4, 48 h; for FIC: synergistic when FIC <0.5.
In the next assay the test system is C. albicans 3153. Kind of assay: agar dilution method, C. albicans 3153. It counts as cell-based, Candida albicans. The note with it: for MIC: Candida albicans, 3153, 48 h, alone, 37° C., 2 days; for FIC: synergistic when FIC <0.5.
In the next assay the test system is C. albicans B5. Kind of assay: agar dilution method, C. albicans B5. Format: cell-based, Candida albicans. As to conditions: for MIC: Candida albicans, B5, 48 h; for FIC: synergistic when FIC <0.5.
Assay [1] has as its target T1, 2,3-epoxysqualene-lanosterol cyclase (Candida albicans, UniProt Q04782).
T1 construct: there was obtained a cell-free extract (CFE) as the supernatant; endogenous in cells; host or cells: Candida albicans culture, protoplasts ruptured, cell-free extract (10000 g supernatant)
Kind of assay: inhibition of 2,3-epoxysqualene-lanosterol cyclase from Candida albicans (cell-free extract, 14C-squalene epoxide). It counts as biochemical.

The next assay relates to Candida albicans. Briefly: agar dilution method, synergism with sterol biosynthesis inhibitors. The note with it: in combination with ketoconazole or terbinafine; synergistic when FIC <0.5. Format: cell-based.
The mark [2] stands for this setting: in combination with compound 20.
Where [3] appears, read: in combination with compound 14.
The mark [4] stands for this setting: cell-free extract, pH 6.9, 30° C., 1 hour, read-out: IC50 (converted).
[5] abbreviates: in combination with terbinafine.
Setting [6] is: in combination with ketoconazole.

Each structure is given as a SMILES string. ≈ marks a conversion by molar mass, not a printed value. Where “and” joins values, the source holds several entries; their conditions need not be identical. Identical values can stand only once. Counter-ions that a name gives are not always drawn. Like-named read-outs stand apart in the source and are kept apart here.

T1 sequence (Q04782 whole entry): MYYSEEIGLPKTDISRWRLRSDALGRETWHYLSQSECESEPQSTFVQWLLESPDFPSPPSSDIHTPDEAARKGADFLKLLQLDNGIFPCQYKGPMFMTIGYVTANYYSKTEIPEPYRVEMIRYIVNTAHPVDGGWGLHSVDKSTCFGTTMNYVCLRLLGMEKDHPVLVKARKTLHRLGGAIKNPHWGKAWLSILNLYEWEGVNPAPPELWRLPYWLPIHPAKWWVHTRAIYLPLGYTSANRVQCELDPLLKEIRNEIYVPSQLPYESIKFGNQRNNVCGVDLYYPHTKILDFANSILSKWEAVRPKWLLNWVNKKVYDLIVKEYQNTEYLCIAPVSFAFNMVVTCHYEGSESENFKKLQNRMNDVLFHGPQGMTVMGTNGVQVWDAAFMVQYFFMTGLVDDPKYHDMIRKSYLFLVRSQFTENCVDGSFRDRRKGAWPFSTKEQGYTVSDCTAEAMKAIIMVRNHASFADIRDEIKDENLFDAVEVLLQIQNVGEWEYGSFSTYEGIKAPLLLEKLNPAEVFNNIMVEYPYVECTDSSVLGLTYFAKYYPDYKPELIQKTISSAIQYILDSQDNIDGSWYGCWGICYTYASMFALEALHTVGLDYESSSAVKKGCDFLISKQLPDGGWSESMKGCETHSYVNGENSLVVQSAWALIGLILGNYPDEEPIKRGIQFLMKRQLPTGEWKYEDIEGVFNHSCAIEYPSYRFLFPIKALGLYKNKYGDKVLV

For `CC(=O)N1CCN(c2ccc(OCC3COC(Cn4ccnc4)(c4ccc(Cl)cc4Cl)O3)cc2)CC1` (stereo not shown) [ketoconazole, reference compound], the MIC in the assay with C. albicans 3152 turned out to be 2.5 µg/mL (≈ 4.7 µM); with C. albicans H12 (alone, 37° C., 2 days) it was 5 µg/mL (≈ 9.41 µM); in the assay on C. albicans H29 it was 0.15 µg/mL (≈ 0.282 µM); in the assay with C. albicans B4 (alone, 37° C., 2 days) it was 2.5 µg/mL (≈ 4.7 µM); against C. albicans 3153, 2.5 µg/mL (≈ 4.7 µM); with C. albicans B5 (alone, 37° C., 2 days) it was 0.15 µg/mL (≈ 0.282 µM). For the same compound, the MIC alone was 10 µg/mL (≈ 18.8 µM) with C. albicans H12 (alone, 37° C., 2 days); 5 µg/mL (≈ 9.41 µM) against C. albicans B4 (alone, 37° C., 2 days); 0.3 µg/mL (≈ 0.565 µM) against C. albicans B5 (alone, 37° C., 2 days). In addition, the “MIC of sterol biosynthesis inhibitor in combination” value is 0.15 µg/mL and 0.075 µg/mL in the assay on C. albicans H12 (setting [2]); 0.019 µg/mL and 0.038 µg/mL with C. albicans H29 (setting [3]); 0.019 µg/mL in the assay on C. albicans H29 (setting [2]); 0.075 µg/mL and 0.15 µg/mL with C. albicans B4 (setting [3]); 0.075 µg/mL in the assay with C. albicans B4 (setting [2]); 0.075 µg/mL with C. albicans 3153 (setting [2]). Moreover, the “MIC of sterol biosynthesis inhibitor in combination” value is 0.019 µg/mL and 0.038 µg/mL in the assay on C. albicans B5 (setting [3]); 0.019 µg/mL in the assay with C. albicans B5 (setting [2]).

With `CN(C/C=C/C#CC(C)(C)C)Cc1cccc2ccccc12` [terbinafine, reference compound], the “MIC of sterol biosynthesis inhibitor in combination” value in the assay with C. albicans H12 (setting [3]) was 1.5 µg/mL; with C. albicans H12 (setting [2]) it was 0.75 µg/mL; with C. albicans H29 (setting [3]), 3.0 µg/mL; in the assay on C. albicans H29 (setting [2]) it was 0.75 µg/mL; in the assay with C. albicans B4 (setting [3]) it was 3.0 µg/mL; with C. albicans B4 (setting [2]), 1.5 µg/mL. The “MIC of sterol biosynthesis inhibitor in combination” value in the assay on C. albicans 3153 (setting [3]) is 3.0 µg/mL and 1.5 µg/mL; in the assay with C. albicans 3153 (setting [2]), 1.50 µg/mL; in the assay on C. albicans B5 (setting [3]), 3.0 µg/mL; with C. albicans B5 (setting [2]) it was 0.7 µg/mL. Also, the lowest concentration to inhibit growth with C. albicans B4 (alone, 37° C., 2 days) (MIC) was 100 µg/mL (≈ 343 µM).

For `CN(C)Cc1ccc(-c2ccc(C(=O)c3ccccc3)cc2)cc1` [Compound 1, 4'-[(dimethylamino)methyl]-4-biphenylyl phenyl ketone hydrochloride], the IC50 in assay [1] (setting [4]) is 0.284 µM.

On to `C=CCN(C)Cc1ccc(-c2ccc(C(=O)c3ccc(Cl)cc3Cl)cc2)cc1` [Compound 16, 2,4-dichlorophenyl 4'-(allylmethylamino)-methyl]-4-biphenylyl ketone hydrochloride], for which the IC50 in assay [1] (setting [4]) was 0.039 µM.

Regarding `C=CCN(C)Cc1ccc(-c2ccc(C(=O)c3ccc([N+](=O)[O-])cc3Cl)cc2)cc1` [Compound 24, 4'-[[(Allylmethylamino)methyl]-4-biphenylyl 2-chloro-4-nitrophenyl ketone hydrochloride], the half-maximal inhibitory concentration (IC50) in assay [1] (setting [4]) was 0.0261 µM.

Regarding `CC(C)=CCCC(=O)c1ccc(-c2ccc(CN(C)C)cc2)cc1` [Compound 36, 4'-[(dimethylamino)methyl]-4-biphenylyl 4-methyl-3-pentenyl ketone hydrochloride], in assay [1] (setting [4]), the IC50 was 0.00838 µM.

With `CN(C)Cc1ccc(-c2ccc(C(=O)c3ccc(F)cc3F)cc2)cc1` [Compound 30], in assay [1] (setting [4]), the half-inhibitory concentration (IC50) was 0.0825 µM.

On to `C=CCN(C)Cc1ccc(-c2ccc(C(=O)c3ccc(Br)cc3)cc2)cc1` [Compound 20, 4'-[[(Allylmethylamino)methyl]-4-biphenylylp-bromophenyl ketone hydrochloride], for which the synergistic activity entry with Candida albicans was “confirm the synergistic activity”. Besides, the MIC in the assay with C. albicans H12 (alone, 37° C., 2 days) came to 2 µg/mL; in the assay with C. albicans H29 it was 1 µg/mL; in the assay with C. albicans B4 (alone, 37° C., 2 days), 2 µg/mL; with C. albicans 3153, 1 µg/mL; against C. albicans B5 (alone, 37° C., 2 days) it was 1 µg/mL. The FIC in the assay with C. albicans H12 (in combination with ketoconazole, synergistic when FIC <0.5, hydrochloride) is 0.156 and 0.078; in the assay with C. albicans H12 (in combination with terbinafine, synergistic when FIC <0.5) it was 0.25; in the assay with C. albicans H29 (setting [6]), 0.375; in the assay on C. albicans H29 (setting [5]), 0.50; with C. albicans B4 (setting [6]), 0.093; in the assay with C. albicans B4 (setting [5]), 0.266. Moreover, the FIC in the assay with C. albicans 3153 (setting [6]) turned out to be 0.156; in the assay on C. albicans 3153 (setting [5]), 0.375; with C. albicans B5 (setting [6]), 0.25; with C. albicans B5 (setting [5]), 0.5. The “MIC of compound in combination” value stood at 0.25 µg/mL with C. albicans H12 (setting [5]); 0.25 µg/mL with C. albicans H29 (setting [6]); 0.25 µg/mL with C. albicans H29 (setting [5]); 0.12 µg/mL in the assay on C. albicans B4 (setting [6]); 0.50 µg/mL with C. albicans B4 (setting [5]); 0.12 µg/mL in the assay with C. albicans 3153 (setting [6]). Moreover, the “MIC of compound in combination” value with C. albicans 3153 (setting [5]) is 0.12 µg/mL; in the assay on C. albicans B5 (setting [6]), 0.25 µg/mL; with C. albicans B5 (setting [5]), 0.25 µg/mL. Further, the IC50 in assay [1] (setting [4]) is 0.0309 µM.

For the compound `CN(C)Cc1ccc(-c2ccc(C(=O)c3ccc4ccccc4c3)cc2)cc1` [Compound 13, 4'-[(Dimethylamino)methyl]-4-biphenylyl 2-naphthyl ketone hydrochloride], in assay [1] (setting [4]), the IC50 was 0.522 µM.

Compound `C=CCN(C)Cc1ccc(-c2ccc(C(=O)CCCCC)cc2)cc1` [Compound 38, 4'-[(allylmethylamino)methyl]-4-biphenylyl pentyl ketone hydrochloride] showed a half-maximal inhibitory concentration (IC50) in assay [1] of 0.0626 µM.

Consider `CN(C)Cc1ccc(-c2ccc(C(=O)c3ccc([N+](=O)[O-])cc3)cc2)cc1` [Compound 5, 4'-[(Dimethylamino)methyl]-4-biphenylyl p-nitrophenyl ketone hydrochloride], for which the IC50 in assay [1] (setting [4]) is 0.29 µM.

With `CN(C)Cc1ccc(-c2ccc(C(=O)c3ccc(F)cc3)cc2)cc1` [Compound 3, 4'-[(Dimethylamino)methyl]-4-biphenyl p-fluorophenyl ketone hydrochloride], the IC50 in assay [1] (setting [4]) was 0.3 µM.

For the compound `COc1ccccc1C(=O)c1ccc(-c2ccc(CN(C)C)cc2)cc1` [Compound 29], the IC50 in assay [1] (setting [4]) was 0.55 µM.

For `C=CCN(C)Cc1ccc(-c2ccc(C(=O)c3ccc([N+](=O)[O-])cc3)cc2)cc1` [Compound 17], in assay [1] (setting [4]), the IC50 is 0.0414 µM.

Turning to `CN(C)Cc1ccc(-c2ccc(C(=O)c3ccc([N+](=O)[O-])cc3Cl)cc2)cc1` [Compound 8, 2-Chloro-4-nitrophenyl 4'-[(dimethylamino)methyl]-4-biphenyl ketone hydrochloride], the half-inhibitory concentration (IC50) in assay [1] (setting [4]) was 0.111 µM.

As for `C=CCN(C)Cc1ccc(-c2ccc(C(=O)c3ccc(Cl)cc3Cl)cc2Cl)cc1` [Compound 21], the IC50 in assay [1] (setting [4]) is 0.0585 µM.

Turning to `CNCc1ccc(-c2ccc(C(=O)c3ccccc3)cc2)cc1` [Compound 26, 4'-[(Methylamino)methyl]-4-biphenylyl phenyl ketone hydrochloride], in assay [1] (setting [4]), the IC50 is 0.592 µM.

As to `CN(C)Cc1ccc(-c2ccc(C(=O)c3ccc(Cl)cc3Cl)cc2)cc1` [Compound 4, 2,4-dichlorophenyl 4'-[(dimethylamino)methyl]-4-biphenyl ketone hydrochloride], the IC50 in assay [1] (setting [4]) is 0.2 µM.

As for `C=CCN(C)Cc1ccc(-c2ccc(C(=O)c3ccc(F)cc3F)cc2)cc1` [Compound 31, 2,4-difluorophenyl 4'-[(allylmethylamino)methyl]-4-biphenylyl ketone], the IC50 in assay [1] was 0.0212 µM.

As to `CN(C)Cc1ccc(-c2ccc(C(=O)c3ccc(Br)cc3)cc2)cc1` [Compound 6, p-Bromophenyl 4'-[(dimethylamino)methyl]-4-biphenylyl ketone hydrochloride], in assay [1] (setting [4]), the concentration for half-maximal inhibition (IC50) was 0.102 µM.

In assay [1], `C=CCN(C)C(C)c1ccc(-c2ccc(C(=O)c3ccccc3)cc2)cc1` (racemic) [Compound 18, rac-4'-[1-(Allylmethylamino)ethyl]-4-biphenylyl phenyl ketone hydrochloride] gave a concentration for half-maximal inhibition (IC50) of 0.09 µM.

With `CN(C)Cc1ccc(-c2ccc(C(=O)c3ccc(Br)cc3Br)cc2)cc1` [Compound 27], the concentration for half-maximal inhibition (IC50) in assay [1] (setting [4]) is 0.0507 µM.

Usually MIC stands for the lowest concentration that inhibits growth of the organism. Higher therefore signals weaker potency. The term IC50 denotes the concentration that gives 50% inhibition.
